Assay results: US20070185077A1, “Methods of treating, preventing and inhibiting cancer metastasis and tumor formation” (Washington University, priority 2003, published 2007)
Bridge positions count the residues as written; N and C are the ends. Square brackets hold non-standard residues; d marks the D form. Peptide text beside a SMILES is read from it. Phe(4-CH2NH2) = NCc1ccc(C[C@H](N)C(=O)O)cc1; Thz(5,5-Me2) = CC1(C)SCN[C@@H]1C(=O)O; NMeR = CN[C@@H](CCCNC(=N)N)C(=O)O; 3Amb = NCc1cccc(C(=O)O)c1; dAbu = CC[C@@H](N)C(=O)O

How the values were obtained:
[1] = target: activated platelet GPIIb/IIIa receptors (Homo sapiens, UniProt P05106+P08514); conditions: cited from earlier work; for affinity for activated versus resting platelet GPIIb/IIIa: resting vs activated form
[2] = target: platelet GPIIb/IIIa receptors (Homo sapiens, UniProt P05106+P08514); conditions: cited from earlier work
[3] = target: resting platelet GPIIb/IIIa receptors (Homo sapiens, UniProt P05106+P08514); conditions: resting form of GPIIb/IIIa; cited from earlier work
[4] = cited from earlier work
platelet aggregation = experiment: Platelet aggregation after in vivo oral administration (aggregometry from PRP); set-up: species or system mice; conditions: after an oral dose of 100 mg/kg
Excerpt: An activated αIIbβ3 receptor antagonist in β3^+/+ mice was utilized in examples showing the role of platelet β3 integrin in the protection from bone metastases seen in the β3^−/− mouse. […] However, those skilled in the art will recognize that additional activated αIIbβ3 receptor antagonists may be used in the methods, the efficacies of which may be determined using the protocols of the present disclosure. Additional protocols are available to those skilled in the art to determine the efficacy of other activated αIIbβ3 receptor antagonists. Such activated αIIb3 receptor antagonists are meant to be encompassed within the scope of the present invention.
(§1) C57BI6 mice were used to analyze metastasis antagonism. […] Blockade of platelet aggregation is complete at 30 minutes after oral gavage but persists for up to 10 hours. […] Thirty minutes after the first oral-gavage dose, mice were LV injected with B16 cells and evaluated for metastases 14 days later.

B16 melanoma cells = experiment: B16 LV injection metastasis model in β3+/+ mice; type: in vivo
Procedure: The activated αIIbβ3 receptor antagonist was tested based on its ability to diminish metastases in wild type mice. […] The mice were treated 30 minutes prior to the LV injection of 1×10^5 B16 cells, and then every 12 hours for 5 doses (2.5 days of treatment out of the 14 day experiment). 14/40 (35%) mice died from bleeding complications after the LV injection indicative of effective disruption of αIIbβ3 mediated platelet aggregation. 1/17 (6%) placebo treated mice died after the LV injection procedure. […] Placebo in DMSO carrier was also administered by oral gavage. Mice were evaluated 14 days after B16 injection for bone and visceral metastases.
Mice were anaesthetized followed by injection with 30 gauge needles of 1×10^5 B16 cells in 100 μl PBS into the left cardiac ventricle as previously described. Confirmation of correct insertion was established by pulsing geyser of blood in the syringe. After the injection mice were monitored daily for 14 days.
as §1

Sequence of platelet GPIIb/IIIa receptors (P08514 32-887 limits assumed): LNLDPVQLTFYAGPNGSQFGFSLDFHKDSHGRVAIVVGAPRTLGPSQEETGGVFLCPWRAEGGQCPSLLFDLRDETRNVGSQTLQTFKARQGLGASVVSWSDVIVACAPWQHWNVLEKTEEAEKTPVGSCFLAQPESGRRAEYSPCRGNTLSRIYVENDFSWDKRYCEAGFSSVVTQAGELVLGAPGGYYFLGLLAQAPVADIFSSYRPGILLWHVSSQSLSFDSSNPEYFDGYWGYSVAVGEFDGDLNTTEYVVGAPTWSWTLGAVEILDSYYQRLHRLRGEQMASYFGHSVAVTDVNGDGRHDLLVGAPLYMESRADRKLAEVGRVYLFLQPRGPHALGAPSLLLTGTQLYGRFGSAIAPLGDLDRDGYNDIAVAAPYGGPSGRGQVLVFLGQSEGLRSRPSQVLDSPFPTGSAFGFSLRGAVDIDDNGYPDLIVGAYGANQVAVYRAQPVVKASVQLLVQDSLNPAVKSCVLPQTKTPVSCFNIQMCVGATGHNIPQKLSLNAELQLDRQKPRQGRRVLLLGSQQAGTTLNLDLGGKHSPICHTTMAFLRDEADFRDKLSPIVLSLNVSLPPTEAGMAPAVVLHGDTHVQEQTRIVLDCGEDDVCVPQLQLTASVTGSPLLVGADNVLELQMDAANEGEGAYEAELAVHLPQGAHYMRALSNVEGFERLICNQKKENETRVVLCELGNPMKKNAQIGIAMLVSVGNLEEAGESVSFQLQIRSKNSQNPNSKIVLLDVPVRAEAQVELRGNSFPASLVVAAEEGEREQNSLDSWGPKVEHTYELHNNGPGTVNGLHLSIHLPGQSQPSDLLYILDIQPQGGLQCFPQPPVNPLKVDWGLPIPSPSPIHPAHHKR
Sequence of platelet GPIIb/IIIa receptors (P08514 891-1039 limits assumed): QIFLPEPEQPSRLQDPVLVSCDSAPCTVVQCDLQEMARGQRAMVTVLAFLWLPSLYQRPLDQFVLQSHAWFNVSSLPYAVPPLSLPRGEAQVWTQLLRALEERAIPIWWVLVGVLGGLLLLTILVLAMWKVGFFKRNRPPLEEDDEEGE
Sequence of platelet GPIIb/IIIa receptors (P05106 27-788): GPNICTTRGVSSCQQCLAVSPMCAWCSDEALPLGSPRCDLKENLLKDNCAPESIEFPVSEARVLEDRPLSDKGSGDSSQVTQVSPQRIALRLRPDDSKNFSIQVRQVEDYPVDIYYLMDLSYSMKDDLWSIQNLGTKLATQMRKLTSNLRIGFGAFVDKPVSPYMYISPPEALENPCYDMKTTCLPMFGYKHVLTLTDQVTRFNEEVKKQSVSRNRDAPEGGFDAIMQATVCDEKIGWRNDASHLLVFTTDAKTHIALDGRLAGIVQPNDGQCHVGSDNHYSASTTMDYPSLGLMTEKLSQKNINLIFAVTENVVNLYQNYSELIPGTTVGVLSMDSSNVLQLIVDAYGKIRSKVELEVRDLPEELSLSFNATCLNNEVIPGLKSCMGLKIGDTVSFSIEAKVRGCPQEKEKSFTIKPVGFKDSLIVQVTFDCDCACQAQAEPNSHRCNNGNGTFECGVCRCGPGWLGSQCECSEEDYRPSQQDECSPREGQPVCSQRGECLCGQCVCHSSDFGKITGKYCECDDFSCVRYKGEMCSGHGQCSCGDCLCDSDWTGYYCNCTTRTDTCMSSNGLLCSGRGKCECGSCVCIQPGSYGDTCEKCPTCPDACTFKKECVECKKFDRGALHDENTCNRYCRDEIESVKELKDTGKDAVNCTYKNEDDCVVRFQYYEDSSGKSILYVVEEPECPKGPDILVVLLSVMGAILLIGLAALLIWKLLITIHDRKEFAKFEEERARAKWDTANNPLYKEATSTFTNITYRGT
Sequence of activated platelet GPIIb/IIIa receptors (P08514 32-887 limits assumed): as the sequence (P08514 32-887 limits assumed) above
Sequence of activated platelet GPIIb/IIIa receptors (P08514 891-1039 limits assumed): as the sequence (P08514 891-1039 limits assumed) above
Sequence of activated platelet GPIIb/IIIa receptors (P05106 27-788): as the sequence (P05106 27-788) above
Sequence of resting platelet GPIIb/IIIa receptors (P08514 32-887 limits assumed): as the sequence (P08514 32-887 limits assumed) above
Sequence of resting platelet GPIIb/IIIa receptors (P08514 891-1039 limits assumed): as the sequence (P08514 891-1039 limits assumed) above
Sequence of resting platelet GPIIb/IIIa receptors (P05106 27-788): as the sequence (P05106 27-788) above

Molecule: CC[C@H]1NC(=O)c2cccc(c2)CNC(=O)[C@H](CC(=O)O)NC(=O)CNC(=O)[C@H](CCCN=C(N)N)N(C)C1=O.CS(=O)(=O)O [DMP728] (cyclo([NMeR]GD[3Amb][dAbu]))
- affinity for activated versus resting platelet GPIIb/IIIa [1]: much higher affinity to the activated form
- platelet dissociation rate [2]: relatively fast

Molecule: CCCCOC(=O)N[C@@H](CNC(=O)C[C@H]1CC(c2ccc(C(=N)N)cc2)=NO1)C(=O)OC [roxifiban]
- affinity for activated versus resting platelet GPIIb/IIIa [1]: comparable Kd values
- platelet dissociation rate [2]: relatively slow

Molecule: C[C@H](CC(=O)O)NC(=O)CN1CCC[C@@H](CCC2CCNCC2)C1=O [L734217]
- Kd ([1]; activated form of GPIIb/IIIa): 5 nM
- affinity for activated versus resting platelet GPIIb/IIIa [1]: much higher affinity to the activated form
- Kd [3]: 620 nM
- platelet dissociation rate [2]: relatively fast

Molecule: Abciximab: Fab fragment of the chimeric human-murine monoclonal antibody 7E3
- human antibody response to the chimeric antibody, patients [4]: approximately 6%

Molecule: CCOC(=O)CCNC(=O)N1CCC2(CC1)CCN(c1ccc(C(=N)NO)cc1)C2=O [ML464]
- duration of disruption of platelet aggregation (platelet aggregation): up to 10 hours
- surviving mice with bone metastases (B16 melanoma cells; 100 mg/Kg oral every 12 hours for 5 doses, 14 days after B16 LV injection, vehicle 76%, P=0.0013): 23%
- visceral metastases versus placebo (B16 melanoma cells; 100 mg/Kg oral every 12 hours for 5 doses, day 14, P=0.0125): decrease
- mice died from bleeding complications after the LV injection (B16 melanoma cells; 100 mg/Kg oral gavage, 30 minutes prior to LV injection, 14/40 mice): 35%
- number and size of visceral metastases versus placebo group (B16 melanoma cells; mice that did develop metastases, tumor sizes not measured): reduced
- metastases in inhibitor treated mice compared to placebo treated mice (B16 melanoma cells; β3+/+ mice, FIG. 5(b)): decrease of metastases

Molecule: CC(=O)N[C@H]1CSSC[C@@H](C(=O)O)NC(=O)[C@H](CC(=O)O)NC(=O)CNC(=O)[C@H](Cc2ccc(CN)cc2)NC(=O)[C@H]2N(CSC2(C)C)C(=O)[C@@H](CC(N)=O)NC1=O [MK852] (Ac-C[dN][Thz(5,5-Me2)][Phe(4-CH2NH2)]GDC-OH; disulfide 1-7)
- affinity for activated versus resting platelet GPIIb/IIIa [1]: much higher affinity to the activated form
- platelet dissociation rate [2]: relatively fast
